Results published in the supplement of paper PMC4862054.

How the values were obtained:
Experiment in all cases: normalised viability (% of control), CellTiter-Blue; higher = more viable cells (about 100 = DMSO control)
Conditions in all cases: incubation time: 72 h
CAL-148 [1] = tested on: CAL-148
Summary of the method: (§1)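 Plates were quality-checked by Z'-factor and normalised to vehicle (100) and a positive kill control (0). The underlying assay incubated breast cancer cell lines for 72 h on 384-well plates with compound, then added 2.5 µl CellTiter-Blue for 2 h at 37 °C and read at 560/590 nm. The value is normalised viability at a single listed concentration of the series.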

HCC1599 [2] = tested on: HCC1599
Summary of the method: as §1

HCC1143 [3] = tested on: HCC1143
Summary of the method: as §1

MFM-223 [4] = tested on: MFM-223
Summary of the method: as §1

MDA-MB-468 [5] = tested on: MDA-MB-468
Summary of the method: as §1

MDA-MB-453 [6] = tested on: MDA-MB-453
Summary of the method: as §1

CAL-51 [7] = tested on: CAL-51
Summary of the method: as §1

DU-4475 [8] = tested on: DU-4475
Summary of the method: as §1

SK-BR-3 [9] = tested on: SK-BR-3
Summary of the method: as §1

HCC1937 [10] = tested on: HCC1937
Summary of the method: as §1

BT-474 [11] = tested on: BT-474
Summary of the method: as §1

MDA-MB-231 [12] = tested on: MDA-MB-231
Summary of the method: as §1

BT-549 = tested on: BT-549
Procedure: (§2)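 DSRT, CellTiter-Blue viability, 72 h incubation. Signal is normalised to DMSO and benzethonium chloride controls. Value is the normalised response at dose 3.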

MDA-MB-436 = tested on: MDA-MB-436
Procedure: as §2

Hs578T = tested on: Hs578T
Procedure: as §2

CAL-148 [13] = tested on: CAL-148; remark: listed apart in the source
Procedure: as §2

HCC1599 [14] = tested on: HCC1599; remark: listed apart in the source
Procedure: as §2

HCC1143 [15] = tested on: HCC1143; remark: listed apart in the source
Procedure: as §2

MFM-223 [16] = tested on: MFM-223; remark: listed apart in the source
Procedure: as §2

MDA-MB-468 [17] = tested on: MDA-MB-468; remark: listed apart in the source
Procedure: as §2

MDA-MB-453 [18] = tested on: MDA-MB-453; remark: listed apart in the source
Procedure: as §2

CAL-85-1 = tested on: CAL-85-1
Procedure: as §2

CAL-51 [19] = tested on: CAL-51; remark: listed apart in the source
Procedure: as §2

CAL-120 = tested on: CAL-120
Procedure: as §2

DU-4475 [20] = tested on: DU-4475; remark: listed apart in the source
Procedure: as §2

SK-BR-3 [21] = tested on: SK-BR-3; remark: listed apart in the source
Procedure: as §2

HDQ-P1 = tested on: HDQ-P1
Procedure: as §2

HCC1937 [22] = tested on: HCC1937; remark: listed apart in the source
Procedure: as §2

BT-474 [23] = tested on: BT-474; remark: listed apart in the source
Procedure: as §2

MDA-MB-231 [24] = tested on: MDA-MB-231; remark: listed apart in the source
Procedure: as §2

CCNC(=O)c1noc(-c2cc(C(C)C)c(O)cc2O)c1-c1ccc(CN2CCOCC2)cc1 [NVP-AUY922]
Conditions	normalised viability [%]
BT-474 [11], 1 nM	102
BT-474 [11], 100 nM	27.7
BT-474 [11], 1000 nM	22.3
BT-474 [23], 10 nM	86.1
BT-549, 10 nM	42.2
CAL-51 [7], 0.3 nM	107
CAL-51 [7], 3 nM	106
CAL-51 [7], 10 nM	104
CAL-51 [19], 1 nM	102
CAL-85-1, 1 nM	96
CAL-120, 10 nM	46.6
CAL-148 [1], 0.3 nM	98.7
CAL-148 [1], 3 nM	108
CAL-148 [1], 10 nM	112
CAL-148 [13], 1 nM	103
DU-4475 [8], 0.3 nM	114
DU-4475 [8], 3 nM	109
DU-4475 [8], 10 nM	87.6
DU-4475 [20], 1 nM	115
HCC1143 [3], 1 nM	119
HCC1143 [3], 100 nM	45
HCC1143 [3], 1000 nM	47.7
HCC1143 [15], 10 nM	100
HCC1599 [2], 1 nM	101
HCC1599 [2], 100 nM	43.4
HCC1599 [2], 1000 nM	41.2
HCC1599 [14], 10 nM	112
HCC1937 [10], 1 nM	58.5
HCC1937 [10], 100 nM	24.7
HCC1937 [10], 1000 nM	30.7
HCC1937 [22], 10 nM	37.8
HDQ-P1, 1 nM	132
Hs578T, 10 nM	37.3
MDA-MB-231 [12], 1 nM	140
MDA-MB-231 [12], 100 nM	39.1
MDA-MB-231 [12], 1000 nM	31
MDA-MB-231 [24], 10 nM	56.5
MDA-MB-436, 10 nM	58.5
MDA-MB-453 [6], 0.3 nM	124
MDA-MB-453 [6], 3 nM	98
MDA-MB-453 [6], 10 nM	83.2
MDA-MB-453 [18], 1 nM	119
MDA-MB-468 [5], 1 nM	106
MDA-MB-468 [5], 100 nM	27.3
MDA-MB-468 [5], 1000 nM	23.3
MDA-MB-468 [17], 10 nM	51.6
MFM-223 [4], 1 nM	97.4
MFM-223 [4], 100 nM	26.1
MFM-223 [4], 1000 nM	25.4
MFM-223 [16], 10 nM	41.1
SK-BR-3 [9], 1 nM	106
SK-BR-3 [9], 100 nM	16.2
SK-BR-3 [9], 1000 nM	16.8
SK-BR-3 [21], 10 nM	34.9

CCN(CC)CCCC(C)Nc1ccnc2cc(Cl)ccc12 (stereo not drawn) [Chloroquine]
Conditions	normalised viability [%]
BT-474 [11], 0.99 nM	109
BT-474 [11], 99 nM	108
BT-474 [11], 990 nM	111
BT-474 [23], 9.9 nM	104
BT-549, 9.9 nM	104
CAL-51 [7], 0.297 nM	94
CAL-51 [7], 2.97 nM	92.9
CAL-51 [7], 9.9 nM	91.7
CAL-51 [19], 0.99 nM	90.3
CAL-85-1, 0.99 nM	94.8
CAL-120, 9.9 nM	102
CAL-148 [1], 0.297 nM	88.5
CAL-148 [1], 2.97 nM	89.1
CAL-148 [1], 9.9 nM	89.4
CAL-148 [13], 0.99 nM	85
DU-4475 [8], 0.297 nM	106
DU-4475 [8], 2.97 nM	89.8
DU-4475 [8], 9.9 nM	112
DU-4475 [20], 0.99 nM	98.2
HCC1143 [3], 0.99 nM	97.8
HCC1143 [3], 99 nM	89.2
HCC1143 [3], 990 nM	93.4
HCC1143 [15], 9.9 nM	87.7
HCC1599 [2], 0.99 nM	100
HCC1599 [2], 99 nM	85.6
HCC1599 [2], 990 nM	119
HCC1599 [14], 9.9 nM	128
HCC1937 [10], 0.99 nM	100
HCC1937 [10], 99 nM	111
HCC1937 [10], 990 nM	100
HCC1937 [22], 9.9 nM	115
HDQ-P1, 0.99 nM	106
Hs578T, 9.9 nM	90.2
MDA-MB-231 [12], 0.99 nM	113
MDA-MB-231 [12], 99 nM	129
MDA-MB-231 [12], 990 nM	98.7
MDA-MB-231 [24], 9.9 nM	107
MDA-MB-436, 9.9 nM	117
MDA-MB-453 [6], 0.297 nM	108
MDA-MB-453 [6], 2.97 nM	111
MDA-MB-453 [6], 9.9 nM	105
MDA-MB-453 [18], 0.99 nM	100
MDA-MB-468 [5], 0.99 nM	107
MDA-MB-468 [5], 99 nM	115
MDA-MB-468 [5], 990 nM	98.4
MDA-MB-468 [17], 9.9 nM	105
MFM-223 [4], 0.99 nM	101
MFM-223 [4], 99 nM	106
MFM-223 [4], 990 nM	94.2
MFM-223 [16], 9.9 nM	98.2
SK-BR-3 [9], 0.99 nM	103
SK-BR-3 [9], 99 nM	93.4
SK-BR-3 [9], 990 nM	101
SK-BR-3 [21], 9.9 nM	92
